US12186283B2, “Bismuth-thiol compositions and methods of use” (Microbion Corporation, priority 2018, dated 2025)

Columns and labels:
N. gonorrhoeae = N. gonorrhoeae MMX 683 (ATCC 49226); cited from earlier work
Clostridium difficile = details: C. difficile MMX 4381 (ATCC 700057), CC^I; cited from earlier work
Bacteroides fragilis = details: B. fragilis MMX 123 (ATCC 25285); cited from earlier work
Escherichia coli [1] = test: Broth microdilution MIC (Example 11); assay type: cell-based
Klebsiella pneumoniae = test: Broth microdilution MIC (Example 11); assay type: cell-based
Enterobacter cloacae = test: Broth microdilution MIC (Example 11); assay type: cell-based; details: E. cloacae MMX 5981 (ATCC BAA-2468); NDM-1, LevR, MEMR, CAZR, GmR
Pseudomonas aeruginosa [2] = test: Broth microdilution MIC (Example 11); assay type: cell-based
Acinetobacter baumannii = test: Broth microdilution MIC (Example 11); assay type: cell-based
[3] = system: Staphylococcus aureus (MRSA); test: Broth microdilution MIC (Example 11); assay type: cell-based
[4] = system: Enterococcus spp. (E. faecalis, E. faecium); test: Broth microdilution MIC (Example 11); assay type: cell-based; details: VRE, LevR, CipR, EryR
Escherichia coli [5] = details: E. coli MMX 102 (ATCC 25922); cited from earlier work
Pseudomonas aeruginosa [6] = details: P. aeruginosa MMX 103 (ATCC 27853); cited from earlier work
[7] = system: Staphylococcus aureus (MRSA); details: S. aureus MMX 101 (ATCC 29213); cited from earlier work

**Q.** Which “MIC, CLSI QC range” value (N. gonorrhoeae) does the source give for `CO/N=C(\C(=O)N[C@@H]1C(=O)N2C(C(=O)O)=C(CSc3nc(=O)c(=O)[nH]n3C)CS[C@H]12)c1csc(N)n1` [Ceftriaxone] here?
**A.** (0.004-0.015) μg/mL

**Q.** For `CCc1c(Cl)c(O)c(Cl)c(O)c1C(=O)O[C@H]1[C@H](O)[C@H](OC)[C@H](OC/C2=C\C=C\C[C@H](O)/C(C)=C/[C@H](CC)[C@@H](O[C@@H]3OC(C)(C)[C@@H](OC(=O)C(C)C)[C@H](O)[C@@H]3O)/C(C)=C/C(C)=C/C[C@@H]([C@@H](C)O)OC2=O)O[C@@H]1C` [Fidaxomicin], which “MIC, CLSI QC range” value (Clostridium difficile) is on record?
**A.** (0.06-0.25) pg/mL

**Q.** For `Cc1ncc([N+](=O)[O-])n1CCO` [Metronidazole], which “MIC, CLSI QC range” value (Bacteroides fragilis) is on record?
**A.** (0.25-1) pg/mL

**Q.** And the “MIC, CLSI QC range” value (Clostridium difficile)?
**A.** (0.12-0.5) pg/mL

**Q.** With Gentamicin as the compound, how does the MIC (Escherichia coli [1]; E. coli MMX 102 (ATCC 25922), QC) read?
**A.** 1 µg/mL

**Q.** And the MIC (Escherichia coli [1]; E. coli MMX 5980 (ATCC BAA-2469), NDM-1, LevR, MEMR, CAZR, GmR)?
**A.** >64 µg/mL

**Q.** And the MIC (Escherichia coli [1]; E. coli MMX 8423, ESBL, LevR, CAZR, GmR)?
**A.** 64 µg/mL

**Q.** What about the MIC (Escherichia coli [1]; E. coli MMX 8424, ESBL, CAZR) of the same compound?
**A.** 0.25 µg/mL

**Q.** What about the MIC (Escherichia coli [1]; E. coli MMX 8425, ESBL, LevR, CAZR, GmR) of the same compound?
**A.** >64 µg/mL

**Q.** And the MIC (Klebsiella pneumoniae; K. pneumoniae MMX 4622, KPC-2, MEMR, CAZR)?
**A.** 0.25 µg/mL

**Q.** And the MIC (Klebsiella pneumoniae; K. pneumoniae MMX 4623, KPC-2, MEMR, CAZR, GMR)?
**A.** 64 µg/mL

**Q.** And the MIC (Klebsiella pneumoniae; K. pneumoniae MMX 4653, KPC-3, LevR, MEMR, CAZR)?
**A.** 1 µg/mL

**Q.** And the MIC (Klebsiella pneumoniae; K. pneumoniae MMX 4683, KPC-2, LevR, MEMR, CAZR)?
**A.** 1 µg/mL

**Q.** What about the MIC (Klebsiella pneumoniae; K. pneumoniae MMX 4684, ESBL, MEMR) of the same compound?
**A.** 0.25 µg/mL

**Q.** And the MIC (Klebsiella pneumoniae; K. pneumoniae MMX 4685, ESBL, LevR, MEMR, CAZR)?
**A.** 1 µg/mL

**Q.** What about the MIC (Klebsiella pneumoniae; K. pneumoniae MMX 4694, KPC-3, LevR, MEMR, CAZR) of the same compound?
**A.** 8 µg/mL

**Q.** And the MIC (Klebsiella pneumoniae; K. pneumoniae MMX 5979, NDM-1, LevR, MEMR, CAZR, GmR)?
**A.** >64 µg/mL

**Q.** What about the MIC (Enterobacter cloacae) of the same compound?
**A.** >64 µg/mL

**Q.** And the MIC (Pseudomonas aeruginosa [2]; P. aeruginosa MMX 103 (ATCC 27853), QC)?
**A.** 1 µg/mL

**Q.** What about the MIC (Pseudomonas aeruginosa [2]; P. aeruginosa MMX 1381, MDR, LevR, CipR, MEMR, CAZR) of the same compound?
**A.** 8 µg/mL

**Q.** What about the MIC (Pseudomonas aeruginosa [2]; P. aeruginosa MMX 2562, MDR, LevR, CipR, MEMR, CAZR) of the same compound?
**A.** 8 µg/mL

**Q.** What about the MIC (Pseudomonas aeruginosa [2]; P. aeruginosa MMX 3991, MDR, LevR, CipR, MEMR, CAZR) of the same compound?
**A.** 4 µg/mL

**Q.** What about the MIC (Pseudomonas aeruginosa [2]; P. aeruginosa MMX 4654, IMP-7, LevR, CipR, MEMR, CAZR) of the same compound?
**A.** > 64 µg/mL

**Q.** And the MIC (Pseudomonas aeruginosa [2]; P. aeruginosa MMX 4697, VIM-2, LevR, CipR, MEMR, CAZR)?
**A.** 4 µg/mL

**Q.** What about the MIC (Acinetobacter baumannii; A. baumannii MMX 2592, MDR, LevR, CipR, MEMR, CAZR, GmR) of the same compound?
**A.** > 64 µg/mL

**Q.** And the MIC (Acinetobacter baumannii; A. baumannii MMX 2593, MDR, LevR, CipR, MEMR, CAZR, GmR)?
**A.** > 64 µg/mL

**Q.** What about the MIC (Acinetobacter baumannii; A. baumannii MMX 3372, MDR, CipR, MEMI, CAZI) of the same compound?
**A.** 0.5 µg/mL

**Q.** And the MIC (Acinetobacter baumannii; A. baumannii MMX 3373, Sensitive)?
**A.** 0.12 µg/mL

**Q.** What about the MIC (Acinetobacter baumannii; A. baumannii MMX 4651 (NCTC 13304), MDR, OXA-27, LevR, CipR, MEMR, CAZR, GmI) of the same compound?
**A.** 8 µg/mL

**Q.** And the MIC ([3]; S. aureus MMX 101 (ATCC 29213), QC, MSSA)?
**A.** 0.12 µg/mL

**Q.** And the MIC ([3]; S. aureus MMX 5373, MRSA, LevR, CipR, CCR, EryR, OxR)?
**A.** 0.25 µg/mL

**Q.** What about the MIC ([3]; S. aureus MMX 6311, MRSA, LevR, CipR, CCR, EryR, OxR) of the same compound?
**A.** 0.25 µg/mL

**Q.** What about the MIC ([3]; S. aureus MMX 9203, MRSA, LevR, CipR, EryR, OxR) of the same compound?
**A.** 0.12 µg/mL

**Q.** And the MIC ([3]; S. aureus MMX 9204, MRSA, LevR, CipR, EryR, OxR)?
**A.** 0.25 µg/mL

**Q.** What about the MIC ([3]; S. aureus MMX 9205, MRSA, LevR, CipR, CCR, EryR, OxR) of the same compound?
**A.** 0.25 µg/mL

**Q.** And the MIC ([4]; E. faecalis MMX 8960)?
**A.** >64 µg/mL

**Q.** What about the MIC ([4]; E. faecalis MMX 8961) of the same compound?
**A.** 8 µg/mL

**Q.** And the MIC ([4]; E. faecalis MMX 8962)?
**A.** >64 µg/mL

**Q.** And the MIC ([4]; E. faecium MMX 485, vanA)?
**A.** >64 µg/mL

**Q.** And the MIC ([4]; E. faecium MMX 752, vanA)?
**A.** >64 µg/mL

**Q.** And the “CLSI QC range (MIC)” value (Escherichia coli [5])?
**A.** (0.25-1) μg/mL

**Q.** What about the “CLSI QC range (MIC)” value (Pseudomonas aeruginosa [6]) of the same compound?
**A.** (0.5-2)

**Q.** And the “CLSI QC range (MIC)” value [7]?
**A.** (0.12-1) μg/mL
